Assay results as given in article PMC6199309, “A therapeutic approach to pantothenate kinase associated neurodegeneration” (Nature Communications, 2018).

Legend:
ABL1-phosphorylated = biological target: T1, ABL1-phosphorylated (Homo sapiens, UniProt P00519); assay: KINOMEscan; format: binding; settings: read-out: %Ctrl @ 10000nM
T1 construct: purchased DiscoverX KINOMEscan

ABL2 = biological target: T2, ABL2 (Homo sapiens, UniProt P42684); assay: KINOMEscan; format: binding; settings: read-out: %Ctrl @ 10000nM
T2 construct: purchased DiscoverX KINOMEscan

ADCK4 = biological target: T3, ADCK4 (Homo sapiens, UniProt Q96D53); assay: KINOMEscan; format: binding; settings: read-out: %Ctrl @ 10000nM
T3 construct: purchased DiscoverX KINOMEscan

AURKC = biological target: T4, AURKC (Homo sapiens, UniProt Q9UQB9); assay: KINOMEscan; format: binding; settings: read-out: %Ctrl @ 10000nM
T4 construct: purchased DiscoverX KINOMEscan

BMPR1B = biological target: T5, BMPR1B (Homo sapiens, UniProt O00238); assay: KINOMEscan; format: binding; settings: read-out: %Ctrl @ 10000nM
T5 construct: purchased DiscoverX KINOMEscan

BRSK1 = biological target: T6, BRSK1 (Homo sapiens, UniProt Q8TDC3); assay: KINOMEscan; format: binding; settings: read-out: %Ctrl @ 10000nM
T6 construct: purchased DiscoverX KINOMEscan
T6 sequence (Q8TDC3 whole entry): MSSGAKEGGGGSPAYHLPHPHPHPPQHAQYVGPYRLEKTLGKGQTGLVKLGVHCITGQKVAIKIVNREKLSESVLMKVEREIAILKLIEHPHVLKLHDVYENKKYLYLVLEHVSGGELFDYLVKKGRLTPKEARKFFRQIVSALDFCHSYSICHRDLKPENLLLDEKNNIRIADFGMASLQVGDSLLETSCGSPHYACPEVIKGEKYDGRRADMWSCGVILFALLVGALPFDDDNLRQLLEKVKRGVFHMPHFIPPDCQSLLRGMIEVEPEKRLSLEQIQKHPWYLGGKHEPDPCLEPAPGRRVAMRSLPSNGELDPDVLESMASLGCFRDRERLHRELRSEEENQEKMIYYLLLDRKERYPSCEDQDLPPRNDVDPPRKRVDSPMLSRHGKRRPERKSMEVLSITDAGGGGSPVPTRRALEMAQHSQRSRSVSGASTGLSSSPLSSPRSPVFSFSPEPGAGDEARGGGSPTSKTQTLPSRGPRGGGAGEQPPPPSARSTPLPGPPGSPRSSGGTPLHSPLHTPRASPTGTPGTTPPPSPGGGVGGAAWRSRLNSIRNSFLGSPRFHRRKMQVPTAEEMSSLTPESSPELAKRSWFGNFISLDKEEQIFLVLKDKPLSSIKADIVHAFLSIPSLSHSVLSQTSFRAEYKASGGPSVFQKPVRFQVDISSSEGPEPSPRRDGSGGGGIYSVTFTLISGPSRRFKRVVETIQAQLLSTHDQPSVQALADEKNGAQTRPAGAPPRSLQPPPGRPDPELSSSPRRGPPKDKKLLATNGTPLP

CAMK1D = biological target: T7, CAMK1D (Homo sapiens, UniProt Q8IU85); assay: KINOMEscan; format: binding; settings: read-out: %Ctrl @ 10000nM
T7 construct: purchased DiscoverX KINOMEscan

CDK2 = biological target: T8, CDK2 (Homo sapiens, UniProt P24941); assay: KINOMEscan; format: binding; settings: read-out: %Ctrl @ 10000nM
T8 construct: purchased DiscoverX KINOMEscan

CDK3 = biological target: T9, CDK3 (Homo sapiens, UniProt Q00526); assay: KINOMEscan; format: binding; settings: read-out: %Ctrl @ 10000nM
T9 construct: purchased DiscoverX KINOMEscan

CDKL1 = biological target: T10, CDKL1 (Homo sapiens, UniProt Q00532); assay: KINOMEscan; format: binding; settings: read-out: %Ctrl @ 10000nM
T10 construct: purchased DiscoverX KINOMEscan

CLK1 = biological target: T11, CLK1 (Homo sapiens, UniProt P49759); assay: KINOMEscan; format: binding; settings: read-out: %Ctrl @ 10000nM
T11 construct: purchased DiscoverX KINOMEscan

CLK4 = biological target: T12, CLK4 (Homo sapiens, UniProt Q9HAZ1); assay: KINOMEscan; format: binding; settings: read-out: %Ctrl @ 10000nM
T12 construct: purchased DiscoverX KINOMEscan

CSF1R-autoinhibited = biological target: T13, CSF1R-autoinhibited (Homo sapiens, UniProt P07333); assay: KINOMEscan; format: binding; settings: read-out: %Ctrl @ 10000nM
T13 construct: purchased DiscoverX KINOMEscan

DDR2 = biological target: T14, DDR2 (Homo sapiens, UniProt Q16832); assay: KINOMEscan; format: binding; settings: read-out: %Ctrl @ 10000nM
T14 construct: purchased DiscoverX KINOMEscan
T14 sequence (Q16832 22-855): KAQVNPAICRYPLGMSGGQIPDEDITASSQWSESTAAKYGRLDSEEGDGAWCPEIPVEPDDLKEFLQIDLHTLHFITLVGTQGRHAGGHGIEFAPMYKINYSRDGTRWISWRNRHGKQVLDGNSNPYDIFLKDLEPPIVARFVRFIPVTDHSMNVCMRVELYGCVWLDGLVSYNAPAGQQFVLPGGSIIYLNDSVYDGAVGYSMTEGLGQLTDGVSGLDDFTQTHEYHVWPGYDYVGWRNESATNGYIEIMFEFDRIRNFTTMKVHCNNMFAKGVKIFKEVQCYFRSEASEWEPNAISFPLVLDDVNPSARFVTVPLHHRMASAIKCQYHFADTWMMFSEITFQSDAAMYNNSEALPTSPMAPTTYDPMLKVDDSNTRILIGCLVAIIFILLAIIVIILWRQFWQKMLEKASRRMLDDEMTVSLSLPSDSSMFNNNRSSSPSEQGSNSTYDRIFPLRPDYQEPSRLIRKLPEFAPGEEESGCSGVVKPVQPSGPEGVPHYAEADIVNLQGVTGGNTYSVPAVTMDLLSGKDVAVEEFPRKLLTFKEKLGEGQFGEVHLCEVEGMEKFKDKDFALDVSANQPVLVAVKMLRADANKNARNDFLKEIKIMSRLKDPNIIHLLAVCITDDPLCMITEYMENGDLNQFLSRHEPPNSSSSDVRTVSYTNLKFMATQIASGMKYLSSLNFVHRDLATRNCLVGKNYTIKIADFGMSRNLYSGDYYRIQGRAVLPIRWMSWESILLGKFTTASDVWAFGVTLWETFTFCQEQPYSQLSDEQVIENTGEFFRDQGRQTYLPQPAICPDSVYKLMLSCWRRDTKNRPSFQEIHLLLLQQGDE

EGFR(E746-A750del) = biological target: T15, EGFR(E746-A750del) (Homo sapiens, UniProt P00533, DEL746-750); assay: KINOMEscan; format: binding; settings: read-out: %Ctrl @ 10000nM
T15 construct: purchased DiscoverX KINOMEscan

EGFR(L858R) = biological target: T16, EGFR(L858R) (Homo sapiens, UniProt P00533, L858R); assay: KINOMEscan; format: binding; settings: read-out: %Ctrl @ 10000nM
T16 construct: purchased DiscoverX KINOMEscan

EPHA7 = biological target: T17, EPHA7 (Homo sapiens, UniProt Q15375); assay: KINOMEscan; format: binding; settings: read-out: %Ctrl @ 10000nM
T17 construct: purchased DiscoverX KINOMEscan
T17 sequence (Q15375 28-998): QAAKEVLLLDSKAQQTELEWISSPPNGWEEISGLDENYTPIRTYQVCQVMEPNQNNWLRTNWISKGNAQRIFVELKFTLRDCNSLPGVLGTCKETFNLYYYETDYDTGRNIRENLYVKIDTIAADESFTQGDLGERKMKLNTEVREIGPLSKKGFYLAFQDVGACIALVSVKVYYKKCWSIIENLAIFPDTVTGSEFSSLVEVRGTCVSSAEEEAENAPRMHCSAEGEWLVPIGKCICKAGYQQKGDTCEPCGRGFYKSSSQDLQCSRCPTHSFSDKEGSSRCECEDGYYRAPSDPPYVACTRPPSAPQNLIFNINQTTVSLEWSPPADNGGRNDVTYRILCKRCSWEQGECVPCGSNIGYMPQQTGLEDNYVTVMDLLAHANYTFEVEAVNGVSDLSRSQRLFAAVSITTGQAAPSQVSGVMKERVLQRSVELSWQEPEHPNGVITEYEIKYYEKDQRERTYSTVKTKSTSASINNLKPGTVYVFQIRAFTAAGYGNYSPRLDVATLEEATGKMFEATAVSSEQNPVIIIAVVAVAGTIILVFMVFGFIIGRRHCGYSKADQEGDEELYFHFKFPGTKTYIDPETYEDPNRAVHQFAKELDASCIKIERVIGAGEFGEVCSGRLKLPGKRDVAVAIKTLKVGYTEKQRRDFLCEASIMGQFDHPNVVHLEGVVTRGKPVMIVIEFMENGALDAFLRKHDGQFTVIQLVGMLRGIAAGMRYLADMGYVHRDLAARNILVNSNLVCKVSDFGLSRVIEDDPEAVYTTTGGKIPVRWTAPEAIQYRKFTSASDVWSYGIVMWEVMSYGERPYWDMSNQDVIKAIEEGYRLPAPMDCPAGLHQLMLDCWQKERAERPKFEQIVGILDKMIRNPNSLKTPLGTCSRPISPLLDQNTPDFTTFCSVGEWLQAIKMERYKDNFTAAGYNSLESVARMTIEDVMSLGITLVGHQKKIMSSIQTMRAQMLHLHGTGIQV

EPHB4 = biological target: T18, EPHB4 (Homo sapiens, UniProt P54760); assay: KINOMEscan; format: binding; settings: read-out: %Ctrl @ 10000nM
T18 construct: purchased DiscoverX KINOMEscan

FLT3(D835Y) = biological target: T19, FLT3(D835Y) (Homo sapiens, UniProt P36888, D835Y); assay: KINOMEscan; format: binding; settings: read-out: %Ctrl @ 10000nM
T19 construct: purchased DiscoverX KINOMEscan

FLT3(ITD) = format: binding, human
HIPK2 = biological target: T20, HIPK2 (Homo sapiens, UniProt Q9H2X6); assay: KINOMEscan; format: binding; settings: read-out: %Ctrl @ 10000nM
T20 construct: purchased DiscoverX KINOMEscan

MAK = biological target: T21, MAK (Homo sapiens, UniProt P20794); assay: KINOMEscan; format: binding; settings: read-out: %Ctrl @ 10000nM
T21 construct: purchased DiscoverX KINOMEscan

MAPKAPK2 = biological target: T22, MAPKAPK2 (Homo sapiens, UniProt P49137); assay: KINOMEscan; format: binding; settings: read-out: %Ctrl @ 10000nM
T22 construct: purchased DiscoverX KINOMEscan

MET = biological target: T23, MET (Homo sapiens, UniProt P08581); assay: KINOMEscan; format: binding; settings: read-out: %Ctrl @ 10000nM
T23 construct: purchased DiscoverX KINOMEscan

MLCK = biological target: T24, MLCK (Homo sapiens, UniProt Q32MK0); assay: KINOMEscan; format: binding; settings: read-out: %Ctrl @ 10000nM
T24 construct: purchased DiscoverX KINOMEscan

MLK2 = biological target: T25, MLK2 (Homo sapiens, UniProt Q02779); assay: KINOMEscan; format: binding; settings: read-out: %Ctrl @ 10000nM
T25 construct: purchased DiscoverX KINOMEscan

MLK3 = biological target: T26, MLK3 (Homo sapiens, UniProt Q16584); assay: KINOMEscan; format: binding; settings: read-out: %Ctrl @ 10000nM
T26 construct: purchased DiscoverX KINOMEscan

MST4 = biological target: T27, MST4 (Homo sapiens, UniProt Q9P289); assay: KINOMEscan; format: binding; settings: read-out: %Ctrl @ 10000nM
T27 construct: purchased DiscoverX KINOMEscan

MYO3A = biological target: T28, MYO3A (Homo sapiens, UniProt Q8NEV4); assay: KINOMEscan; format: binding; settings: read-out: %Ctrl @ 10000nM
T28 construct: purchased DiscoverX KINOMEscan
T28 sequence (Q8NEV4 whole entry): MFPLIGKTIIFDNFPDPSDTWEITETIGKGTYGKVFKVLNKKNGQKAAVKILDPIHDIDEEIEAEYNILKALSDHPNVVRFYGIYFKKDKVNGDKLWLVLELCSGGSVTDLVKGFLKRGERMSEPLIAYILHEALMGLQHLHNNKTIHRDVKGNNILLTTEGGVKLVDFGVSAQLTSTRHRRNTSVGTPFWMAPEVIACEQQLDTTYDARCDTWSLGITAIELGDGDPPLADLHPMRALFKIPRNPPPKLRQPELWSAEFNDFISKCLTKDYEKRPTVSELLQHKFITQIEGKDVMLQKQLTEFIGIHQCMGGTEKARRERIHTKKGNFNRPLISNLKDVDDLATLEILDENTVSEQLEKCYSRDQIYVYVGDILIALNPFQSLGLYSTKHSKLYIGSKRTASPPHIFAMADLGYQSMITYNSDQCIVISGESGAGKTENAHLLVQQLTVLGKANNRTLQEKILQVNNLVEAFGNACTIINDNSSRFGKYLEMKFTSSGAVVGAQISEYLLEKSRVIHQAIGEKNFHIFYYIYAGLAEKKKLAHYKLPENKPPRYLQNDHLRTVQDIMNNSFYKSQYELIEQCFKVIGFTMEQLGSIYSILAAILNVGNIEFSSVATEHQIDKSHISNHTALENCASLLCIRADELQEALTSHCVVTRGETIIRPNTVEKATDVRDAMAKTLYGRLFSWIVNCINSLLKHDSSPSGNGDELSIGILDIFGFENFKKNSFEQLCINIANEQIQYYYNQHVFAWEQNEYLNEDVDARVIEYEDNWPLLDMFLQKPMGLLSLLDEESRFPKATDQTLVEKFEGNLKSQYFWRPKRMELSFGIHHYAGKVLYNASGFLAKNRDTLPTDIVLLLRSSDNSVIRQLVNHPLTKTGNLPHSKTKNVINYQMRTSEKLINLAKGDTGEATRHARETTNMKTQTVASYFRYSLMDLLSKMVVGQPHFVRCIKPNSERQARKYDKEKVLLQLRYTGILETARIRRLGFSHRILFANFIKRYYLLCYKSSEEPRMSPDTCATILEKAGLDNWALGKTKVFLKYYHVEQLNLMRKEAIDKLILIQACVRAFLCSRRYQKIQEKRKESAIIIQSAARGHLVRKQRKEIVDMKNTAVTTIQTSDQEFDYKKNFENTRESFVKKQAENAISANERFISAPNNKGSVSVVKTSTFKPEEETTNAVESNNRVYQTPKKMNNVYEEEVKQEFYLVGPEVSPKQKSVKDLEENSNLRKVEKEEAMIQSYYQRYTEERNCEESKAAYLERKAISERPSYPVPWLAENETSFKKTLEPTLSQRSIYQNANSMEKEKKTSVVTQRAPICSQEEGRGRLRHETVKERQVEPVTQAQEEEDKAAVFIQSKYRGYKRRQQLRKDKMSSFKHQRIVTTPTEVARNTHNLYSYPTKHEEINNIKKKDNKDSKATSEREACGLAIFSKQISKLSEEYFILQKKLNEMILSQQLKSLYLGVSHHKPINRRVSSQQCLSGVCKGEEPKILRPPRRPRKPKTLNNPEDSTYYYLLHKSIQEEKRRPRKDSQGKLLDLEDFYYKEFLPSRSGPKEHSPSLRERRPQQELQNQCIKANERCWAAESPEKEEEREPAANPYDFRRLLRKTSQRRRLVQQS

OSR1 = biological target: T29, OSR1 (Homo sapiens, UniProt O95747); assay: KINOMEscan; format: binding; settings: read-out: %Ctrl @ 10000nM
T29 construct: purchased DiscoverX KINOMEscan

p38-delta = biological target: T30, p38-delta (Homo sapiens, UniProt O15264); assay: KINOMEscan; format: binding; settings: read-out: %Ctrl @ 10000nM
T30 construct: purchased DiscoverX KINOMEscan

PIK3C2B = biological target: T31, PIK3C2B (Homo sapiens, UniProt O00750); assay: KINOMEscan; format: binding; settings: read-out: %Ctrl @ 10000nM
T31 construct: purchased DiscoverX KINOMEscan

PIKFYVE = biological target: T32, PIKFYVE (Homo sapiens, UniProt Q9Y2I7); assay: KINOMEscan; format: binding; settings: read-out: %Ctrl @ 10000nM
T32 construct: purchased DiscoverX KINOMEscan

PIP5K2B = biological target: T33, PIP5K2B (Homo sapiens, UniProt P78356); assay: KINOMEscan; format: binding; settings: read-out: %Ctrl @ 10000nM
T33 construct: purchased DiscoverX KINOMEscan

PRKCQ = biological target: T34, PRKCQ (Homo sapiens, UniProt Q04759); assay: KINOMEscan; format: binding; settings: read-out: %Ctrl @ 10000nM
T34 construct: purchased DiscoverX KINOMEscan
T34 sequence (Q04759 whole entry): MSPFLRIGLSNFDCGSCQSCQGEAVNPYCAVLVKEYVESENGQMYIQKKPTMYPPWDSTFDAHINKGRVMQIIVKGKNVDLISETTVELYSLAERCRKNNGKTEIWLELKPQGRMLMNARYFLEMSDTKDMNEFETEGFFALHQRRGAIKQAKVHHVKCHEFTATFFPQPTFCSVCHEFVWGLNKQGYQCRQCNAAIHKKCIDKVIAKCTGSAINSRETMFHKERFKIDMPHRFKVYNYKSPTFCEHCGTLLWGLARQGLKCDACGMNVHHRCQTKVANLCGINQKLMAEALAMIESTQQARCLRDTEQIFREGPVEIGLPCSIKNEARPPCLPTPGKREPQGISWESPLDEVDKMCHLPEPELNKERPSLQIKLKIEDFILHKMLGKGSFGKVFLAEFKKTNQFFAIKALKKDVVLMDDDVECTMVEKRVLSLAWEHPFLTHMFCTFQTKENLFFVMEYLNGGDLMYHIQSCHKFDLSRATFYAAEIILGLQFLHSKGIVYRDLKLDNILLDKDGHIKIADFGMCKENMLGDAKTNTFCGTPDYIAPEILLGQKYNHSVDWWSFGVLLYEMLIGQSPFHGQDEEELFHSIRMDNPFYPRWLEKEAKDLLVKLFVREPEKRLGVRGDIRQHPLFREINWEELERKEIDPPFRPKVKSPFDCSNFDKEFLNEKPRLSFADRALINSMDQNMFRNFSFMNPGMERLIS

RET = biological target: T35, RET (Homo sapiens, UniProt P07949); assay: KINOMEscan; format: binding; settings: read-out: %Ctrl @ 10000nM
T35 construct: purchased DiscoverX KINOMEscan

[1] = biological target: T36, RSK3(Kin.Dom.1-N-terminal) (Homo sapiens, UniProt Q15349); assay: KINOMEscan; format: binding; settings: read-out: %Ctrl @ 10000nM
T36 construct: RSK3(Kin.Dom.1-N-terminal); purchased DiscoverX KINOMEscan

SBK1 = biological target: T37, SBK1 (Homo sapiens, UniProt Q52WX2); assay: KINOMEscan; format: binding; settings: read-out: %Ctrl @ 10000nM
T37 construct: purchased DiscoverX KINOMEscan

SGK2 = biological target: T38, SGK2 (Homo sapiens, UniProt Q9HBY8); assay: KINOMEscan; format: binding; settings: read-out: %Ctrl @ 10000nM
T38 construct: purchased DiscoverX KINOMEscan

SNARK = biological target: T39, SNARK (Homo sapiens, UniProt Q9H093); assay: KINOMEscan; format: binding; settings: read-out: %Ctrl @ 10000nM
T39 construct: purchased DiscoverX KINOMEscan

TRPM6 = biological target: T40, TRPM6 (Homo sapiens, UniProt Q9BX84); assay: KINOMEscan; format: binding; settings: read-out: %Ctrl @ 10000nM
T40 construct: DNA label for qPCR (T7 phage fusion or DNA tag); purchased DiscoverX scanMAX; host or cells: E. coli BL21-derived (T7 phage) or HEK-293

ZAP70 = biological target: T41, ZAP70 (Homo sapiens, UniProt P43403); assay: KINOMEscan; format: binding; settings: read-out: %Ctrl @ 10000nM
T41 construct: purchased DiscoverX scanMAX; host or cells: E. coli BL21-derived host (T7 phage) or HEK-293

SMILES: CC(C)c1ccc(CC(=O)N2CCN(c3ccc(C#N)nn3)CC2)cc1 [PZ-2891, 6-(4-(2-(4-isopropylphenyl)acetyl)piperazin-1-yl)pyridazine-3-carbonitrile]
- remaining binding at 10 µM (ABL1-phosphorylated): 78%
- remaining binding at 10 µM (ABL2): 96%
- remaining binding at 10 µM (ADCK4): 92%
- remaining binding at 10 µM (AURKC): 94%
- remaining binding at 10 µM (BMPR1B): 60%
- remaining binding at 10 µM (BRSK1): 75%
- remaining binding at 10 µM (CAMK1D): 95%
- remaining binding at 10 µM (CDK2): 87%
- remaining binding at 10 µM (CDK3): 97%
- remaining binding at 10 µM (CDKL1): 74%
- remaining binding at 10 µM (CLK1): 75%
- remaining binding at 10 µM (CLK4): 98%
- remaining binding at 10 µM (CSF1R-autoinhibited): 93%
- remaining binding at 10 µM (DDR2): 85%
- remaining binding at 10 µM (EGFR(E746-A750del)): 100%
- remaining binding at 10 µM (EGFR(L858R)): 84%
- remaining binding at 10 µM (EPHA7): 92%
- remaining binding at 10 µM (EPHB4): 97%
- remaining binding at 10 µM (FLT3(D835Y)): 89%
- %Ctrl @ 10000nM (FLT3(ITD)): 99%
- remaining binding at 10 µM (HIPK2): 100%
- remaining binding at 10 µM (MAK): 69%
- remaining binding at 10 µM (MAPKAPK2): 88%
- remaining binding at 10 µM (MET): 80%
- remaining binding at 10 µM (MLCK): 100%
- remaining binding at 10 µM (MLK2): 72%
- remaining binding at 10 µM (MLK3): 80%
- remaining binding at 10 µM (MST4): 91%
- remaining binding at 10 µM (MYO3A): 68%
- remaining binding at 10 µM (OSR1): 87%
- remaining binding at 10 µM (p38-delta): 76%
- remaining binding at 10 µM (PIK3C2B): 100%
- remaining binding at 10 µM (PIKFYVE): 72%
- remaining binding at 10 µM (PIP5K2B): 88%
- remaining binding at 10 µM (PRKCQ): 100%
- remaining binding at 10 µM (RET): 74%
- remaining binding at 10 µM [1]: 72%
- remaining binding at 10 µM (SBK1): 62%
- remaining binding at 10 µM (SGK2): 64%
- remaining binding at 10 µM (SNARK): 69%
- remaining binding at 10 µM (TRPM6): 98%
- remaining binding at 10 µM (ZAP70): 96%
